Measured values from article PMC9848300, “Discovery of novel enasidenib analogues targeting inhibition of mutant isocitrate dehydrogenase 2 as antileukaemic agents” (Journal of Enzyme Inhibition and Medicinal Chemistry, 2023).

Experiments:
Format in all cases: cell-based
SF-539 = assay: NCI 60 antitumor screening (single dose / five doses); settings: Homo sapiens; SF-539 (CNS cancer), single dose 10 μM; read-out: Growth inhibition percentage (GI %)
ACHN = assay: as above; settings: Homo sapiens; ACHN (renal cancer), single dose 10 μM; read-out: Growth inhibition percentage (GI %)
UACC-257 = assay: as above; settings: Homo sapiens; UACC-257 (melanoma), single dose 10 μM; read-out: Growth inhibition percentage (GI %)
MALME-3M = assay: as above; settings: Homo sapiens; MALME-3M (melanoma), single dose 10 μM; read-out: Growth inhibition percentage (GI %)
OVCAR-3 = assay: NCI 60 antitumor screening (single dose); settings: Homo sapiens; OVCAR-3 (ovarian cancer), single dose 10 μM; read-out: Growth inhibition percentage (GI %)
Method in brief: (§1)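 At one concentration (10 μM), compounds are run in triplicate on 60 human cancer lines per the NCI method. Treated-cell growth is recorded as G%. Reported inhibition equals 100 − G%.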

SF-268 = assay: NCI 60 antitumor screening (single dose); settings: Homo sapiens; SF-268 (CNS cancer), single dose 10 μM; read-out: Growth inhibition percentage (GI %)
Method in brief: (§2)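 The panel mean likewise comes from single-dose (10 μM) NCI 60-line testing, with inhibition expressed as 100 − G%.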

NCI-H226 = assay: NCI 60 antitumor screening (single dose); settings: Homo sapiens; NCI-H226 (non-small cell lung cancer), single dose 10 μM; read-out: Growth inhibition percentage (GI %)
Method in brief: as §1

HS 578T = assay: NCI 60 antitumor screening (single dose); settings: Homo sapiens; HS 578T (breast cancer), single dose 10 μM; read-out: Growth inhibition percentage (GI %)
Method in brief: as §1

MCF7 = assay: NCI 60 antitumor screening (single dose); settings: Homo sapiens; MCF7 (breast cancer), single dose 10 μM; read-out: Growth inhibition percentage (GI %)
Method in brief: as §1

OVCAR-8 = assay: NCI 60 antitumor screening (single dose); settings: Homo sapiens; OVCAR-8 (ovarian cancer), single dose 10 μM; read-out: Growth inhibition percentage (GI %)
Method in brief: as §1

CAKI-1 = assay: NCI 60 antitumor screening (single dose); settings: Homo sapiens; CAKI-1 (renal cancer), single dose 10 μM; read-out: Growth inhibition percentage (GI %)
Method in brief: as §1

U251 = assay: NCI 60 antitumor screening (single dose); settings: Homo sapiens, U-251; U251 (CNS cancer), single dose 10 μM; read-out: Growth inhibition percentage (GI %)
Method in brief: as §2

TK-10 = assay: NCI 60 antitumor screening (single dose); settings: Homo sapiens; TK-10 (renal cancer), single dose 10 μM; read-out: Growth inhibition percentage (GI %)
Method in brief: as §1

NCI-H460 = assay: NCI 60 antitumor screening (single dose); settings: Homo sapiens; NCI-H460 (non-small cell lung cancer), single dose 10 μM; read-out: Growth inhibition percentage (GI %)
Method in brief: as §2

PC-3 = assay: NCI 60 antitumor screening (single dose); settings: Homo sapiens; PC-3 (prostate cancer), single dose 10 μM; read-out: Growth inhibition percentage (GI %)
Method in brief: as §1

M14 = assay: NCI 60 antitumor screening (single dose); settings: Homo sapiens; M14 (melanoma), single dose 10 μM; read-out: Growth inhibition percentage (GI %)
Method in brief: as §1

HOP-62 = assay: NCI 60 antitumor screening (single dose); settings: Homo sapiens; HOP-62 (non-small cell lung cancer), single dose 10 μM; read-out: Growth inhibition percentage (GI %)
Method in brief: as §2

OVCAR-5 = assay: NCI 60 antitumor screening (single dose); settings: Homo sapiens; OVCAR-5 (ovarian cancer), single dose 10 μM; read-out: Growth inhibition percentage (GI %)
Method in brief: as §2

A549/ATCC = assay: NCI 60 antitumor screening (single dose); settings: Homo sapiens; A549/ATCC (non-small cell lung cancer), single dose 10 μM; read-out: Growth inhibition percentage (GI %)
Method in brief: as §1

NCI-H322M = assay: NCI 60 antitumor screening (single dose); settings: Homo sapiens; NCI-H322M (non-small cell lung cancer), single dose 10 μM; read-out: Growth inhibition percentage (GI %)
Method in brief: as §1

KM 12 = assay: NCI 60 antitumor screening (single dose); settings: Homo sapiens, KM12; KM 12 (colon cancer), single dose 10 μM; read-out: Growth inhibition percentage (GI %)
Method in brief: as §1

HCC-2998 = assay: NCI 60 antitumor screening (single dose); settings: Homo sapiens; HCC-2998 (colon cancer), single dose 10 μM; read-out: Growth inhibition percentage (GI %)
Method in brief: as §2

NCI-H522 = assay: NCI 60 antitumor screening (single dose); settings: Homo sapiens; NCI-H522 (non-small cell lung cancer), single dose 10 μM; read-out: Growth inhibition percentage (GI %)
Method in brief: as §2

SNB-19 = assay: NCI 60 antitumor screening (single dose); settings: Homo sapiens; SNB-19 (CNS cancer), single dose 10 μM; read-out: Growth inhibition percentage (GI %)
Method in brief: as §1

CCRF-CEM = assay: NCI 60 antitumor screening (single dose / five doses); settings: Homo sapiens; CCRF-CEM (leukaemia), single dose 10 μM; read-out: Growth inhibition percentage (GI %)
RPMI-8226 = assay: as above; settings: Homo sapiens; RPMI-8226 (leukaemia), single dose 10 μM; read-out: Growth inhibition percentage (GI %)
K-562 = assay: as above; settings: Homo sapiens, K562; K-562 (leukaemia), single dose 10 μM; read-out: Growth inhibition percentage (GI %)

Row | Structure (SMILES) | inhibition at 10 µM (SF-539) | inhibition at 10 µM (ACHN) | inhibition at 10 µM (UACC-257) | inhibition at 10 µM (MALME-3M) | inhibition at 10 µM (OVCAR-3) | inhibition at 10 µM (SF-268) | inhibition at 10 µM (NCI-H226) | inhibition at 10 µM (HS 578T) | inhibition at 10 µM (MCF7) | inhibition at 10 µM (OVCAR-8) | inhibition at 10 µM (CAKI-1) | inhibition at 10 µM (U251) | inhibition at 10 µM (TK-10) | inhibition at 10 µM (NCI-H460) | inhibition at 10 µM (PC-3) | inhibition at 10 µM (M14) | inhibition at 10 µM (HOP-62) | inhibition at 10 µM (OVCAR-5) | inhibition at 10 µM (A549/ATCC) | inhibition at 10 µM (NCI-H322M) | further results
1 | Oc1ccc(/C=N/Nc2nc(N/N=C/c3ccc(O)c(O)c3)nc(N3CCOCC3)n2)cc1O [compound 6j, 4-[(1e)-(2-{4-[(E)-2-[(3,4-Dihydroxyphenyl)methylidene]hydrazin-1-yl]-6-(morpholin-4-yl)-1,3,5-triazin-2-yl}hydrazin-1-ylidene)methyl]benzene-1,2-diol] | -3.18% | -1.32% | -3.12% | -4.04% | -4.79% | -2.53% | 1.59% | -5.42% | 5.79% | -0.99% | 0.69% | -3.1% | -9.62% | -7.99% | -5.8% | -4.69% | -5.33% | -3.8% | 1.02% | 9.4% | inhibition at 10 µM (KM 12): -1.91%; inhibition at 10 µM (HCC-2998): -6.4%; inhibition at 10 µM (NCI-H522): 3.1%; inhibition at 10 µM (SNB-19): -4.37%; inhibition at 10 µM (CCRF-CEM): -2.09%; inhibition at 10 µM (RPMI-8226): -3.09%; inhibition at 10 µM (K-562): -5.6%
2 | C(=N\Nc1nc(N/N=C/c2ccc3c(c2)OCO3)nc(N2CCOCC2)n1)/c1ccc2c(c1)OCO2 [compound 6k, 2,4-Bis[(E)-2-(2H-1,3-Benzodioxol-5-ylmethylidene)hydrazin-1-yl]-6-(morpholin-4-yl)-1,3,5-triazine] | 18.2% | 24.7% | -2.23% | -3.77% | 6.73% | 8.94% | 22% | 16.7% | 30.9% | 26% | 21.1% | 24.1% | -3.24% | 12.2% | 30.1% | 5.09% | 13.6% | -1.78% | 17.7% | 11.8% | inhibition at 10 µM (KM 12): 17.4%; inhibition at 10 µM (HCC-2998): 8.26%; inhibition at 10 µM (NCI-H522): 12.5%; inhibition at 10 µM (SNB-19): 5.57%; inhibition at 10 µM (CCRF-CEM): 41%; inhibition at 10 µM (RPMI-8226): 40.3%; inhibition at 10 µM (K-562): 45.6%
3 | Fc1cccc(Cl)c1/C=N/Nc1nc(N/N=C/c2c(F)cccc2Cl)nc(N2CCOCC2)n1 [compound 6l, 2,4-Bis[(E)-2-[(2-Chloro-6-fluorophenyl)methylidene]hydrazin-1-yl]-6-(morpholin-4-yl)-1,3,5-triazine] | 7.53% | 7.67% | 17% | 16% | 22.9% | 11.2% | 20.4% | 5% | 29% | 15.5% | 17.5% | 11.8% | -16.5% | 23.1% | 19.3% | 27.8% | 6.23% | -12.4% | 21% | 16.2% | inhibition at 10 µM (KM 12): 18.9%; inhibition at 10 µM (HCC-2998): 5.25%; inhibition at 10 µM (NCI-H522): 14.4%; inhibition at 10 µM (SNB-19): 12.9%; inhibition at 10 µM (CCRF-CEM): 18.9%; inhibition at 10 µM (RPMI-8226): 41.1%; inhibition at 10 µM (K-562): 43%
4 | Oc1ccccc1/C=N/Nc1nc(N/N=C/c2ccccc2O)nc(N2CCCCC2)n1 [compound 7a, 2-[(1e)-(2-{4-[(E)-2-[(2-Hydroxyphenyl)methylidene]hydrazin-1-yl]-6-(piperidin-1-yl)-1,3,5-triazin-2-yl}hydrazin-1-ylidene)methyl] phenol] | 40.6% | 63.1% | 20.9% | 33.1% | 80.8% | 45.7% | 18.2% | 23.4% | 64.3% | 50.4% | 24.5% | 49.6% | 2.29% | 60.5% | 55.2% | 53.6% | 44.2% | 28.4% | 52.2% | 41.1% | inhibition at 10 µM (KM 12): 52.5%; inhibition at 10 µM (HCC-2998): 60.4%; inhibition at 10 µM (NCI-H522): 52.5%; inhibition at 10 µM (SNB-19): 44%; inhibition at 10 µM (CCRF-CEM): 78.3%; inhibition at 10 µM (RPMI-8226): 57.4%; inhibition at 10 µM (K-562): 61.8%
5 | Brc1ccccc1/C=N/Nc1nc(N/N=C/c2ccccc2Br)nc(N2CCCCC2)n1 [compound 7b, 2,4-Bis[(E)-2-[(2-Bromophenyl)methylidene]hydrazin-1-yl]-6-(piperidin-1-yl)-1,3,5-triazine] | 2.62% | 4.56% | -8.22% | -6.25% | -6.1% | -1.64% | 10.9% | -5.25% | 13.2% | -1.21% | 3.19% | -2.15% | -16.5% | 0.96% | 5.07% | -4.12% | 1.14% | 0.1% | -2.25% | 3.65% | inhibition at 10 µM (KM 12): 2%; inhibition at 10 µM (HCC-2998): -7.41%; inhibition at 10 µM (NCI-H522): 6.02%; inhibition at 10 µM (SNB-19): 3.76%; inhibition at 10 µM (CCRF-CEM): 0.06%; inhibition at 10 µM (RPMI-8226): -0.33%; inhibition at 10 µM (K-562): 4.67%
6 | Clc1cccc(/C=N/Nc2nc(N/N=C/c3cccc(Cl)c3)nc(N3CCCCC3)n2)c1 [compound 7d, 2,4-Bis[(E)-2-[(3-Chlorophenyl)methylidene]hydrazin-1-yl]-6-(piperidin-1-yl)-1,3,5-triazine] | -5.25% | -1.44% | -11.1% | -9.06% | 8.59% | 8.03% | 18% | -4.65% | 16.9% | 10.8% | 7.63% | 8.35% | -6.48% | 3.48% | 24% | 4.75% | -4.1% | -10.4% | 13.7% | -1.33% | inhibition at 10 µM (KM 12): 8.95%; inhibition at 10 µM (HCC-2998): -8.18%; inhibition at 10 µM (NCI-H522): 11.7%; inhibition at 10 µM (SNB-19): 1.37%; inhibition at 10 µM (CCRF-CEM): 25%; inhibition at 10 µM (RPMI-8226): 27.6%; inhibition at 10 µM (K-562): 17%
